Results on 15 molecules are retold here after ChEMBL document CHEMBL4219085, “Discovery of isatin and 1H-indazol-3-ol derivatives as d-amino acid oxidase (DAAO) inhibitors” (Bioorg Med Chem, 2018).

Data set [1] concerns the target D-amino-acid oxidase (Sus scrofa, UniProt P00371). In words: Binding affinity to pig kidney DAAO by ITC method. (In general: Isothermal titration calorimetry measures the heat released or taken up as one component is titrated into another.)
Data set [2] concerns the target T1, D-amino-acid oxidase (Homo sapiens, UniProt P14920). In words: Inhibition of human DAAO using D-KYN as substrate preincubated for 20 mins followed by substrate addition measured after 30 mins by FP-6300-based fluorescence spectrometry.
Target sequence in this assay (P14920 whole entry): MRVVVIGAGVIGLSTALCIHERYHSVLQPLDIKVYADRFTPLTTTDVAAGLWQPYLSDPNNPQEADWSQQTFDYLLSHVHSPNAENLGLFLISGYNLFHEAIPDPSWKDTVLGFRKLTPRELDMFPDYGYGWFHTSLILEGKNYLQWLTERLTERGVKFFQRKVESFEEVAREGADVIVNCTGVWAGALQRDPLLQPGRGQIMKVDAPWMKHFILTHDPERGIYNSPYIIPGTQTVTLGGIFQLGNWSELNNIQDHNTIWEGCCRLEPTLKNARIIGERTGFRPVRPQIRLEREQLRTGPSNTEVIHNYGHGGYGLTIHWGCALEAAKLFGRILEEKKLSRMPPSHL
A short description of data set [3]: Dissociation constant, pKa of the compound by UV-spectrophotometric titration method. The data set is classed as physicochemical.
Data set [4] deals with T1, D-amino-acid oxidase. Kind of data set: Inhibition of DAAO (unknown origin).
Target sequence in this assay (P14920 whole entry): as above
Data set [5] is described as follows: Intrinsic clearance in NMRI mouse hepatic microsomes at 1 uM up to 90 mins by LC-MS/MS analysis. The data set is classed as ADME, microsome. As to conditions: liver microsomes, read-out: CLH.
For data set [6], the system named is Mus musculus. In words: Anti-schizophrenic activity in NMRI mouse assessed as increase in D-serine levels in blood at 30 mg/kg, ip measured after 60 mins by capillary electrophoresis laser induced fluorescence method. The data set is classed as functional.
Data set [7] in a line: Effective permeability of the compound assessed as membrane retention after 4 hrs at pH 7.4 by PAMPA. Format: ADME. Particulars: pH 7.4, 4 h. (In general: In PAMPA a lipid-coated filter parts donor from acceptor wells.)
Data set [8] can be described thus: Elimination half life in NMRI mouse hepatic microsomes at 1 uM up to 90 mins by LC-MS/MS analysis. Format: ADME, microsome. As to conditions: liver microsomes, read-out: beta t1/2. In general terms: Microsomes from liver hold many membrane-bound enzymes, among them those of drug oxidation.
The nature of data set [9]: Intrinsic clearance in NMRI mouse primary hepatocytes at 1 uM up to 240 mins by LC-MS/MS analysis. As to conditions: read-out: CLH. The data set is classed as ADME, cell-based, Hepatocyte.
Data set [10] is described as follows: Drug level in blood of NMRI mouse assessed at 30 mg/kg, ip co-dosed with 30 mg/kg, ip D-serine measured after 10 mins. Particulars: read-out: Drug uptake. The data set is classed as ADME, organism-based.
The subject of data set [11] is Mus musculus. In words: Anti-schizophrenic activity in NMRI mouse assessed as increase in D-serine levels in blood at 30 mg/kg, ip measured after 10 mins by capillary electrophoresis laser induced fluorescence method. Format: functional.
The nature of data set [12]: Elimination half life in human primary hepatocytes at 1 uM up to 240 mins by LC-MS/MS analysis. As to conditions: read-out: beta t1/2. The data set is classed as ADME, cell-based, Hepatocyte.
A short description of data set [13]: Drug level in blood of NMRI mouse assessed at 30 mg/kg, ip co-dosed with 30 mg/kg, ip D-serine measured after 60 mins. Particulars: read-out: Drug uptake. The data set is classed as ADME, organism-based.
Data set [14] is described as follows: Elimination half life in human hepatic microsomes at 1 uM up to 90 mins by LC-MS/MS analysis. Format: ADME, microsome. As to conditions: liver microsomes, read-out: beta t1/2.
Data set [15] is described as follows: Effective permeability of the compound assessed as membrane retention after 4 hrs at pH 6.5 to 7.4 by PAMPA. The data set is classed as ADME. Particulars: pH 6.5, 4 h.
A short description of data set [16]: Intrinsic clearance in human primary hepatocytes at 1 uM up to 240 mins by LC-MS/MS analysis. Format: ADME, cell-based, Hepatocyte. Particulars: read-out: CLH.
Data set [17] can be described thus: Effective permeability of the compound assessed as membrane retention after 4 hrs at pH 5.5 to 7.4 by PAMPA. Format: ADME. Particulars: pH 5.5, 4 h.
The nature of data set [18]: Intrinsic clearance in human hepatic microsomes at 1 uM up to 90 mins by LC-MS/MS analysis. The data set is classed as ADME, microsome. As to conditions: liver microsomes, read-out: CLH.
A short description of data set [19]: Effective permeability of the compound after 4 hrs at pH 5.5 to 7.4 by PAMPA. Format: ADME. Particulars: read-out: Peff.
The nature of data set [20]: Elimination half life in NMRI mouse primary hepatocytes at 1 uM up to 240 mins by LC-MS/MS analysis. As to conditions: read-out: beta t1/2. Format: ADME, cell-based, Hepatocyte.
Data set [21] in a line: Effective permeability of the compound after 4 hrs at pH 7.4 by PAMPA. Particulars: read-out: Peff. Format: ADME.
Data set [22] in a line: Effective permeability of the compound after 4 hrs at pH 6.5 to 7.4 by PAMPA. The data set is classed as ADME. As to conditions: read-out: Peff.
In data set [23] the target is T1, D-amino-acid oxidase. In words: Inhibition of human DAAO at 20 uM using D-KYN as substrate preincubated for 20 mins followed by substrate addition measured after 30 mins by FP-6300-based fluorescence spectrometry.
Target sequence in this assay (P14920 whole entry, looked up): as the sequence (P14920 whole entry) above

SMILES strings stand for the structures.

D-amino-acid oxidase (Sus scrofa, UniProt P00371), sequence (P00371 whole entry): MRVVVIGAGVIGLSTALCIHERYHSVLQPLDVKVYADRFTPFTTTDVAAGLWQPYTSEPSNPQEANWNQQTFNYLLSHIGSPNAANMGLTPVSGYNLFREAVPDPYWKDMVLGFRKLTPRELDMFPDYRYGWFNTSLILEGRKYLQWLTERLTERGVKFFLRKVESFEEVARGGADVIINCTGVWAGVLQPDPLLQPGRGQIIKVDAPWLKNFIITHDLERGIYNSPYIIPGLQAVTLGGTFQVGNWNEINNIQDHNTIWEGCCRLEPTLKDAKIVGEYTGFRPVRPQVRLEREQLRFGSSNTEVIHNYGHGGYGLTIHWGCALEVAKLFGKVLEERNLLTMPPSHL

Take `Oc1noc2ccccc12`: on D-amino-acid oxidase [1], the affinity, expressed as Kd, was 440 nM. The same molecule returned an IC50 against D-amino-acid oxidase [2] of 418 nM.
On to `O=c1[nH][nH]c2ccccc12`, for which the Kd at D-amino-acid oxidase [1] was determined as 4430 nM. Further, the pKa in [3] is 8.16.
With `O=C1Nc2c(Cl)cccc2C1=O`, the IC50 against D-amino-acid oxidase [4] was 7870 nM. In addition, the pKa in data set [3] worked out at 9.44.
With `Oc1n[nH]c2c(Cl)cccc12`, the Kd at D-amino-acid oxidase [1] was 3310 nM. The molecule also returned a concentration for half-maximal inhibition (IC50) on D-amino-acid oxidase [2] of 10100 nM. For the same molecule, the pKa in data set [3] was determined as 7.28.
As to `Cc1cccc2c1NC(=O)C2=O`, the Kd on D-amino-acid oxidase [1] amounted to 8230 nM. This molecule displayed an IC50 at D-amino-acid oxidase [2] of 13100 nM.
In turn, `O=c1[nH][nH]c2ccc(Br)cc12` returned a dissociation constant Kd at D-amino-acid oxidase [1] of 3290 nM.
Consider `Oc1n[nH]c2cc(F)ccc12`, for which the values for the CLint scaled at […], 1 µM in data set [5] and in data set [18] were 8.29 mL/min/kg and 0.9 mL/min/kg, respectively. Further, the Activity came out at 27% with Mus musculus [6] and 33% in the data set with Mus musculus [11]. Also, the R% in data set [7] is 5.8%; in [15] it was 7.1%; in data set [17] it was 3.9%. Besides, binding on D-amino-acid oxidase [1] was characterised by a dissociation constant (Kd) of 1000 nM. The results for the half-life at […], 1 µM in data set [8] and in [14] were 1.33 h and 3.04 h, respectively. Further, the CLint scaled at 1 µM was determined as 20 mL/min/kg in [9] and 2.78 mL/min/kg in data set [16]. For the same molecule, the concentration at 10 min in [10] is 13.1 µM. The half-life at 1 µM is 6.86 h in data set [12] and 2.97 h in [20]. In addition, the concentration at 1 h in data set [13] is 0.77 µM. For the same molecule, the half-maximal inhibitory concentration (IC50) at D-amino-acid oxidase [2] was in the range of 120 to 123 nM. Further, the Papp at 4 h in data set [19] was found to be 1.2 ×10⁻⁶ cm/s; in data set [21] it was 0.72 ×10⁻⁶ cm/s; in data set [22] it was 0.97 ×10⁻⁶ cm/s. This molecule also registered a pKa in [3] of 7.84.
For the molecule `Oc1cc(CCc2ccccc2)[nH]n1`, the inhibition on D-amino-acid oxidase [23] turned out to be 66%.
With `Oc1n[nH]c2cccc(Cl)c12`, at D-amino-acid oxidase [23], the inhibition was 19%. The pKa in data set [3] amounted to 7.51.
As to `Oc1noc2cc(Cl)ccc12`, binding at D-amino-acid oxidase [1] was characterised by a dissociation constant (Kd) of 870 nM.
As to `Oc1n[nH]c2ccc(Cl)cc12`, binding at D-amino-acid oxidase [1] was put at a Kd of 780 nM. In addition, in data set [3], the pKa amounted to 7.53.
At D-amino-acid oxidase [1], `O=[N+]([O-])c1ccc2c(O)[nH]nc2c1` returned a Kd of 4590 nM. The molecule further returned an IC50 at D-amino-acid oxidase [2] of 1200 nM. This molecule also registered a pKa in data set [3] of 6.52.
For the molecule `Oc1n[nH]c2cc(Cl)ccc12`, the CLint scaled at […], 1 µM in data set [5] turned out to be 11.7 mL/min/kg; in data set [18], 0.76 mL/min/kg. Besides, the R% in [7] was found to be 2.5%; in data set [15], 9.7%; in data set [17] it was 6.7%. This molecule registered a Kd at D-amino-acid oxidase [1] of 2000 nM. For the same molecule, the half-life at […], 1 µM in data set [8] is 0.942 h; in data set [14], 3.6 h. For the same molecule, the CLint scaled at 1 µM in data set [9] turned out to be 68.2 mL/min/kg; in [16], 2.54 mL/min/kg. The half-life at 1 µM in [12] was found to be 7.51 h; in [20] it was 0.87 h. For the same molecule, the IC50 at D-amino-acid oxidase [2] was in the range of 150 to 156 nM. Also, the Papp at 4 h in data set [19] was 9.53 ×10⁻⁶ cm/s; in data set [21], 4.47 ×10⁻⁶ cm/s; in [22], 7.43 ×10⁻⁶ cm/s. Besides, the pKa in data set [3] worked out at 7.59.
Turning to `Oc1n[nH]c2ccc(F)cc12`, on D-amino-acid oxidase [1], the dissociation constant (Kd) was 1200 nM.
In turn, `Oc1n[nH]c2cccc(Br)c12` yielded an inhibition against D-amino-acid oxidase [23] of 34%. The molecule also displayed a pKa in data set [3] of 7.51.

A word on the Kd: it is the equilibrium constant for the complex coming apart. Low values mean a tighter complex, high ones a looser complex. The IC50 is the concentration that inhibits the measured activity by half. Low readings indicate greater potency in that assay, high ones weaker potency in that assay. For orientation: pKa means the pH at which an ionisable group is half protonated. As a reminder, the inhibition is the percentage by which the read-out fell short of the control. Low readings indicate little suppression, high ones strong suppression.
